# Reference: ChEMBL document CHEMBL1255168, “1-Aryl-3-(1-acylpiperidin-4-yl)urea inhibitors of human and murine soluble epoxide hydrolase: structure-activity relationships, pharmacokinetics, and reduction of inflammatory pain” (J Med Chem, 2010)
# What was measured:
# [1] = target: T1, Bifunctional epoxide hydrolase 2 (Homo sapiens, UniProt P34913)
# T1 sequence (P34913 whole entry): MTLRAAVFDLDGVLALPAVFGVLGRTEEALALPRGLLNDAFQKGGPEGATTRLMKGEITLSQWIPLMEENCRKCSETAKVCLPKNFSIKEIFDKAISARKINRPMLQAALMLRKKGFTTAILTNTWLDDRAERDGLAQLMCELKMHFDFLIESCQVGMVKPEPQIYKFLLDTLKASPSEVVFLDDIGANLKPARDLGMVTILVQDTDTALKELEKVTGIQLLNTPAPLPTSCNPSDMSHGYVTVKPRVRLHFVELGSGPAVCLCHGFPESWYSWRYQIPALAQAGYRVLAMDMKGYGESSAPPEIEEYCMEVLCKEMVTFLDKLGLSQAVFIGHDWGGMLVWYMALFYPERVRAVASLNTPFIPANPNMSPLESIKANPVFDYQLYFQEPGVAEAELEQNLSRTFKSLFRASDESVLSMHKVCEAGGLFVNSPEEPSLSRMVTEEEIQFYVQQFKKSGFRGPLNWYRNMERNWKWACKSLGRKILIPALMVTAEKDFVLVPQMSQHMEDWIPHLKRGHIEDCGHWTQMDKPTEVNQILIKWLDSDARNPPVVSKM
# Description: Inhibition of human recombinant soluble epoxide hydrolase by fluorescence assay
# [2] = target: T2, Bifunctional epoxide hydrolase 2 (Mus musculus, UniProt P34914)
# T2 sequence (P34914 whole entry): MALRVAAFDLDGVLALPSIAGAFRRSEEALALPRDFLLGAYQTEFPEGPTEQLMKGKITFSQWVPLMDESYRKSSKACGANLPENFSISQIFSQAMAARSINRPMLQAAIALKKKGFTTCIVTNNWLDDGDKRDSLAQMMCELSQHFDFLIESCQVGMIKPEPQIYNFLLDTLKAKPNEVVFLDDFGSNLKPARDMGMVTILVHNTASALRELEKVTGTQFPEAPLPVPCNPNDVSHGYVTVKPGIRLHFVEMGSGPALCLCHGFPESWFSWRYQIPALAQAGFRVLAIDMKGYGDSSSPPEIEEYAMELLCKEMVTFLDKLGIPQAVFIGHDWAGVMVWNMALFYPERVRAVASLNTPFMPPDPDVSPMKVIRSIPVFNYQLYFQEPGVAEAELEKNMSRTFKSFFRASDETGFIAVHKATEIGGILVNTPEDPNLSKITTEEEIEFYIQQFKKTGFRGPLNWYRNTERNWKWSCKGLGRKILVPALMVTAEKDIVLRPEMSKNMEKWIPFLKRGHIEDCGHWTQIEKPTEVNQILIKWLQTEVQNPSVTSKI
# Description: Inhibition of mouse recombinant soluble epoxide hydrolase by fluorescence assay
IC50 [1],IC50 [2],SMILES
> 5000 nM,–,CCC(=O)N1CCC(NC(=O)Nc2cc(OC)c(OC)c(OC)c2)CC1
61 nM,100 nM,CCC(=O)N1CCC(NC(=O)Nc2ccc3c(c2)OCO3)CC1
140 nM,64 nM,CCC(=O)N1CCC(NC(=O)Nc2ccc(C(=O)OC)cc2)CC1
1.5 nM,18 nM,O=C(Nc1ccc(OC(F)(F)F)cc1)NC1CCN(C(=O)CN2CCN(Cc3ccccc3)CC2)CC1
